Consider one compound from patent US9371330B2, “Substituted pyrazino[1,2-a]pyrimidines useful as CBP/catenin antagonists for enhancing asymmetric division of somatic stem cells” (University of Southern California, priority 2011, dated 2016).

One series concerns elastin. In words: ex vivo human skin assay, qRT-PCR of elastin. It counts as cell-based. Conditions: 24 hrs; 5 uM ICG-001, 5 uM methylated ICG-001, 1 ug/ml RA. Here is the method:
(§1) Methods. Ex Vivo human skin assay culture conditions were based upon a paper by Varani J et al Experimental and Molecular Pathology, 2004.
(§2) Briefly, human skin (surgical waste from plastic surgery procedures) was obtained and the subcutaneous layer of fat was trimmed manually with a scalpel. The skin was then cut into small fragments about 2 mm square and placed in 6 well plates. 1 ml of keratinocyte culture medium (Gibco 10724-011) with 1% P/S (penstrep antibiotic) was added to each well. The epidermis, bathed in media was placed facing up. On the next day (overnight culture in the media above), the skin fragments were transferred to fresh wells that contained either 5 uM ICG-001, 5-uM methylated ICG-001 or 1 ug/ml of retinoic acid (RA). After 24 hrs, skin samples in culture were removed for RNA isolation and qRT-PCR analysis of genes of interest (e.g. elastin (a gene involved in skin appearance and pliability (e.g., wrinkling) and aquaporin 1, which is involved with hydration.

Series [1] deals with NOD/SCIDIL2R gamma-/- mice. Kind of series: leukemia mouse model: hair growth and wound healing. It counts as in vivo. The following applies: ICG-001 50 mg/kg/d with VDL vs VDL only, 50 mg/kg/day. Here is the method: NOD/SCIDIL2R gamma−/− mice were shaved and sublethally irradiated prior intravenous injection of 50,000 cells per animal. Leukemic animals were treated with a combination of intraperitoneally administered vincristine/dexamethasone/L-Aspariginase (VDL) and ICG-001 (50 mg/kg/d), which was delivered via subcutaneous osmotic pumps to ensure stable plasma levels, with VDL only as a control for 20 days. The animals were checked periodically for survival, hair growth, and wound healing.

Another series concerns PC-12 cells. In words: PC-12 cells with FAD mutant PS-1 (L286V): neuronal differentiation. The format is cell-based. An excerpt:
However, the effects of PS-1 mutations on the stability of beta-catenin, TCF/beta-catenin signaling, and thereby its potential role in AD remain controversial. Applicant has shown that introduction of a FAD mutant PS-1 (L286V) into PC-12 cells causes increased TCF/beta-catenin signaling, leading to the inhibition of neurite outgrowth. […] In the CNS, EpB2 expression is associated with axonal guidance (16). […] In initial in vivo studies, applicant treated penta-transgenic mice that over express mutant APP(695) (Swedish (K670N,M671L), Florida ([…]) and London (V717I)) and PS-1 (M146L and L286V) mutations with ICG-001 for 2 months (months 2-4). These mice normally develop massive cerebral deposition of Aβ starting at 6 weeks of age.

The test system of the next series is SW620 xenograft. In words: nude mouse SW620 xenograft model of colon cancer. The following applies: in vivo. An excerpt: (§3) Cancer. The importance of Wnt signaling in colorectal cancer is undisputed. Applicant's investigation on the therapeutic utility of ICG-001 therefore quite naturally began with colon cancer.
The target in series [2] is CBP/beta-catenin interaction (Homo sapiens, UniProt Q92793). In words: disruption of CBP/beta-catenin interaction. The format is binding. The source says:
Applicant next mapped the binding domains between CBP and beta-catenin, as well as between p300 and beta-catenin. The C-terminal trans-activating region of beta-catenin (647-781) interacted with the same 1-111 amino acids of both CBP and p300 (23). However, only the interaction between CBP and beta-catenin was disrupted by ICG-001, and not the p300/beta-catenin interaction.

Series [3] concerns mitotic cells in the ventricular zone (VZ). Kind of series: symmetric versus asymmetric divisions (Par3 distribution) in the ventricular zone of mouse embryos. Conditions: topical or oral administration to pregnant mice. The format is in vivo. The source says: Taking advantage of the ready uptake and penetration through the placental barrier of applicant's small molecule Wnt modulators, applicant designed a series of experiments to investigate symmetric versus asymmetric divisions in the ventricular zone (VZ) of the brain during mouse embryonic development. Timed pregnant mice were topically treated for various time periods (1-3 days) with DMSO (vehicle control), the CBP/catenin antagonist ICG-001 or the p300/catenin antagonist IQ-1. Using a previously described protocol (56), the localization of […] (Par3) and DNA was examined in mitotic cells in the VZ. Par3 distributes symmetrically in cells that divide symmetrically and asymmetrically in cells that divide asymmetrically, whereas the DNA distributes symmetrically between the 2 cells. Using fluorescence microscopy, the percentage of mitotic cells dividing symmetrically or asymmetrically could be quantified. […] Antagonizing the CBP/catenin interaction with ICG-001 had no apparent effect yielding similarly, approximately 21% asymmetric divisions. […] Importantly, this decrease in asymmetric divisions upon treatment with IQ-1 could be rescued back essentially to control levels (i.e. ˜21%) by treatment with a 2-fold excess of ICG-001. Even further divergence in symmetric versus asymmetric divisions could be seen upon prolonged treatments. For example, treatment with IQ-1 (i.e., antagonizing p300/catenin interaction leading to increased usage of CBP) for 3 days (E13.5-16.5) decreased asymmetric divisions compared to control from 31% to 7%. […] This reporter mouse expresses EGFP, driven by the Tis21 promoter, in cells that have undergone neurogenic differentiative divisions.
For example, Bultje et al (Bultje R Neuron 63, 189-202, 2009) describe an assay to measure asymmetric distributions in the ventricular zone (vz) to evaluate asymmetric divisions during neurogenesis. Essentially this involves treating the animal (either adult or in utero) for a set period of time with compounds (either p.o., s.c., i.v. or topically) with compounds and then sacrificing the animal and examining the Par3 distribution (e.g., via immunohistochemistry) in mitotic cells vs. DNA distribution (e.g., using DAPI staining) Par3 distributes equally among the two daughter cells during symmetric division and unequally (essentially all in one daughter cell) during asymmetric differentiation.

A further series deals with hair follicle. The following applies: cited from earlier work.
The next series has as its system aquaporin 1. Kind of series: ex vivo human skin assay, qRT-PCR of aquaporin 1. It counts as cell-based. Conditions: 24 hrs; 5 uM ICG-001, 5 uM methylated ICG-001, 1 ug/ml RA. How it is done:
as §1, §2

Series [4] relates to cerebral deposition of Aβ. Kind of series: Aβ deposition in penta-transgenic mouse model of Alzheimer's disease. The format is in vivo. Conditions: 50 mg/kg/day, 2 months, immunohistochemistry, vs saline. How it is done: Applicant utilized a penta-transgenic mouse model of AD, which normally develops massive cerebral deposition of Aβ starting at 6 weeks of age. These mice were treated with either (A) ICG-001 (50 mg/kg/day) or (B) saline for 2 months. […] However, the effects of PS-1 mutations on the stability of beta-catenin, TCF/beta-catenin signaling, and thereby its potential role in AD remain controversial. […] In the CNS, EpB2 expression is associated with axonal guidance (16). […] In initial in vivo studies, applicant treated penta-transgenic mice that over express mutant APP(695) (Swedish (K670N,M671L), Florida ([…]) and London (V717I)) and PS-1 (M146L and L286V) mutations with ICG-001 for 2 months (months 2-4). These mice normally develop massive cerebral deposition of Aβ starting at 6 weeks of age.

The next series concerns colorectal cancer cells. In words: colorectal cancer cells: survivin and cytotoxicity. It counts as cell-based.
Source text: as §3

Entries after “also recorded” stand apart in the source; their conditions may differ.

Sequence of CBP/beta-catenin interaction (Q92793 1-111): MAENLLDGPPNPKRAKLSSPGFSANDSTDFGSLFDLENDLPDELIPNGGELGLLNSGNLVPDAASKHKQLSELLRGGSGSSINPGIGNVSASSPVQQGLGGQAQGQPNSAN

Consider `O=C1[C@H](Cc2ccc(O)cc2)N2C(=O)CCN(C(=O)NCc3ccccc3)[C@H]2CN1Cc1cccc2ccccc12` [ICG-001], for which, in the series on elastin, the expression of elastin entry is “increase”. In series [1] (within two weeks), the “hair growth on shaved area” value is reported as “had regrown their hair; also recorded: substantial hair growth covering the entire previously shaved area”. Besides, in series [1], the “healing of pump insertion wounds” value is given as “had substantial improved; also recorded: heal quicker”. Also, the GAP43 expression result with PC-12 cells (NGF-induced differentiation, vs untreated cells) is given as “dramatically increased”. In addition, the “neuronal differentiation and neurite outgrowth” value in the series with PC-12 cells (PS-1 (L286V) mutant cells) is “rescues the defects in neuronal differentiation and neurite outgrowth”. In addition, the tumor growth entry with SW620 xenograft is “reducing tumor growth”. In addition, the “disruption of the CBP/beta-catenin interaction” value in series [2] is “disrupted”. Further, the “effect on number of asymmetric divisions” value in series [3] is “does not affect the number of asymmetric divisions”. The survivin expression result is listed as “decreased survivin expression” with hair follicle and “down-regulated survivin” with colorectal cancer cells. The hair fiber elongation result in the series on hair follicle (dose-dependent) was “significantly reduced hair fiber elongation”. Besides, the “expression of aquaporin 1” value with aquaporin 1 was “increase”. Moreover, the “amyloid plaque formation / Aβ staining” value in series [4] was “significant decrease in amyloid plaque formation; also recorded: decrease in Aβ staining”. In addition, the cytotoxicity entry with colorectal cancer cells (colorectal cancer cells vs normal colonic epithelial cells) was “selective cytotoxicity in colorectal cancer cells, but not in normal colonic epithelial cells”.
